According to the NIST ThermoML archive (doi:10.1016/j.jct.2014.01.020):

Experiment: xn = mol fraction of the nth substance listed
Conditions: Liquid; for mass density: Vibrating tube method; for viscosity: 101 kPa, Concentric cylinders viscometry

C1CCCCC1 [cyclohexane] + CCCCO
mass density [kg/m3]
Conditions	x2 = 0.1	x2 = 0.2	x2 = 0.3003	x2 = 0.4005	x2 = 0.4997	x2 = 0.6001	x2 = 0.6999	x2 = 0.7998	x2 = 0.8999
293.15 K, 100 kPa	779.5	781.4	783.9	786.6	789.7	793.1	796.8	800.7	805
293.15 K, 1000 kPa	780.2	782	784.5	787.3	790.3	793.7	797.4	801.3	805.6
293.15 K, 2000 kPa	781	782.9	785.3	788.1	791.1	794.5	798.2	802	806.3
293.15 K, 5000 kPa	783.5	785.3	787.7	790.5	793.4	796.9	800.4	804.3	808.5
293.15 K, 10000 kPa	787.3	789.2	791.6	794.3	797.2	800.5	804	807.9	812
293.15 K, 15000 kPa	791.1	792.8	795.2	797.8	800.8	804	807.5	811.3	815.4
293.15 K, 20000 kPa	794.5	796.3	798.6	801.3	804.2	807.4	810.8	814.5	818.6
303.15 K, 100 kPa	770.1	772	774.6	777.6	780.9	784.5	788.5	792.3	797.1
303.15 K, 1000 kPa	770.8	772.8	775.3	778.3	781.6	785.2	789.1	793.2	797.8
303.15 K, 2000 kPa	771.7	773.7	776.2	779.2	782.5	786	789.9	794.1	798.6
303.15 K, 5000 kPa	774.4	776.3	778.8	781.7	785	788.5	792.4	796.4	800.9
303.15 K, 10000 kPa	778.5	780.4	782.9	785.7	788.9	792.5	796.2	800.2	804.6
303.15 K, 15000 kPa	782.4	784.3	786.7	789.6	792.7	796.1	799.8	803.8	808.1
303.15 K, 20000 kPa	786.2	788	790.4	793.2	796.3	799.6	803.3	807.2	811.5
303.15 K, 30000 kPa	793.2	795	797.4	800.2	803.1	806.4	810	813.8	817.9
303.15 K, 40000 kPa	799.6	801.4	803.8	806.5	809.4	812.6	816.1	819.8	823.8
313.15 K, 100 kPa	760.4	762.5	765.2	768.4	771.8	775.7	779.8	784.3	789.1
313.15 K, 1000 kPa	761.3	763.3	766.1	769.2	772.7	776.5	780.6	785	789.8
313.15 K, 2000 kPa	762.2	764.3	767	770.1	773.6	777.4	781.5	785.9	790.7
313.15 K, 5000 kPa	765.1	767.1	769.7	772.8	776.2	780	784.1	788.4	793.1
313.15 K, 10000 kPa	769.5	771.5	774.1	777.1	780.5	784.1	788.1	792.4	797
313.15 K, 15000 kPa	773.6	775.6	778.2	781.2	784.4	788	791.9	796.1	800.6
313.15 K, 20000 kPa	777.7	779.5	782.1	785	788.3	791.8	795.6	799.8	804.2
313.15 K, 30000 kPa	785.1	787	789.4	792.3	795.4	798.9	802.6	806.6	811
313.15 K, 40000 kPa	791.9	793.7	796.2	799	802	805.3	809	812.9	817.1
313.15 K, 50000 kPa	798.3	800.1	802.5	805.1	808.1	811.4	815	818.8	822.9
313.15 K, 60000 kPa	804.2	806	808.4	810.9	813.8	817	820.5	824.4	828.3
323.15 K, 100 kPa	750.6	752.8	755.6	758.9	762.6	766.6	771.1	775.7	780.7
323.15 K, 1000 kPa	751.6	753.8	756.6	759.9	763.5	767.5	771.9	776.6	781.6
323.15 K, 2000 kPa	752.6	754.8	757.6	760.8	764.5	768.5	772.9	777.5	782.5
323.15 K, 5000 kPa	755.6	757.8	760.5	763.7	767.3	771.3	775.6	780.1	785.1
323.15 K, 10000 kPa	760.3	762.5	765.2	768.3	771.8	775.7	779.9	784.4	789.2
323.15 K, 15000 kPa	764.8	766.9	769.6	772.7	776.1	779.9	783.9	788.3	793.1
323.15 K, 20000 kPa	769	771.1	773.7	776.7	780.1	783.8	787.9	792.2	796.8
323.15 K, 30000 kPa	776.9	779	781.6	784.4	787.7	791.2	795.2	799.3	803.9
323.15 K, 40000 kPa	784.2	786.1	788.6	791.4	794.6	798.1	801.8	805.9	810.3
323.15 K, 50000 kPa	790.8	792.8	795.1	797.9	801	804.4	808	812	816.3
323.15 K, 60000 kPa	797.2	799	801.4	804.1	807	810.5	814	817.9	822.1
323.15 K, 70000 kPa	802.9	804.6	806.9	809.6	812.6	815.8	819.3	823.2	827.3
323.15 K, 80000 kPa	808.6	810.1	812.3	815	817.9	821.1	824.5	828.3	832.3
333.15 K, 100 kPa	740.7	743	745.9	749.4	753.1	757.4	762.1	767	772.4
333.15 K, 1000 kPa	741.7	744	746.9	750.3	754.1	758.4	763	767.9	773.3
333.15 K, 2000 kPa	742.8	745.1	748	751.4	755.2	759.4	764	768.9	774.2
333.15 K, 5000 kPa	746.1	748.3	751.1	754.5	758.2	762.4	766.9	771.8	777
333.15 K, 10000 kPa	751.1	753.3	756.1	759.4	763	767.1	771.5	776.2	781.3
333.15 K, 15000 kPa	755.9	758	760.8	764	767.5	771.5	775.8	780.4	785.4
333.15 K, 20000 kPa	760.5	762.5	765.2	768.4	771.8	775.7	780	784.5	789.4
333.15 K, 30000 kPa	768.9	770.8	773.4	776.4	779.8	783.6	787.6	792	796.7
333.15 K, 40000 kPa	776.5	778.3	780.8	783.8	787	790.7	794.6	798.8	803.4
333.15 K, 50000 kPa	783.5	785.2	787.7	790.6	793.7	797.2	801.1	805.2	809.7
333.15 K, 60000 kPa	790	791.7	794.1	797	800.1	803.4	807.1	811.2	815.6
333.15 K, 70000 kPa	796.1	797.7	800	802.9	805.8	809.2	812.9	816.8	821.2
333.15 K, 80000 kPa	801.9	803.3	805.7	808.4	811.3	814.6	818.3	822.1	826.3
333.15 K, 90000 kPa	807.3	808.7	810.9	813.7	816.5	819.8	823.3	827.2	831.3
333.15 K, 100000 kPa	812.4	813.8	816	818.7	821.5	824.7	828.1	831.9	836

viscosity [mPa·s]
Conditions	x2 = 0	x2 = 0.1073	x2 = 0.1991	x2 = 0.2998	x2 = 0.4006	x2 = 0.4997	x2 = 0.6001	x2 = 0.7001	x2 = 0.7997	x2 = 0.8996
293.15 K	0.98	0.997	1.042	1.11	1.277	1.462	1.69	1.95	2.243	2.576
303.15 K	0.824	0.837	0.87	0.924	1.038	1.17	1.337	1.528	1.747	1.998
313.15 K	0.701	0.708	0.731	0.772	0.855	0.95	1.074	1.218	1.382	1.573
323.15 K	0.593	0.596	0.613	0.659	0.704	0.776	0.868	0.99	1.106	1.255
333.15 K	0.522	0.522	0.535	0.565	0.605	0.657	0.723	0.8	0.889	1.011
